The nature of data set [1]: Relaxivity measurements at 1.41 T in water and plasma. The class given is physicochemical. Particulars: relaxivity normalized to Gd, 37° C. As for the experimental part:
Relaxivity measurements at 1.41 T were performed using a MiniSpec mq60 spectrometer (Bruker Analytik, Karlsruhe) operating at a resonance frequency of 60 MHz and a temperature of 37° C. The T1 relaxation times were determined using the standard inversion recovery method. The T2 measurements were done by using the Carr-Purcell-Meiboom-Gill (CPMG) pulse sequence. All measurements were done at concentrations between 0.05 mM and 1 mM of Gd in water and plasma.
The relaxivities ri (where i=1, 2) were calculated on the basis of the measured relaxation rates Ri in water and plasma:
where Ri(0) represent the relaxation rate of the respective solvent and CGd the concentration of the compound normalized to the Gadolium.

Data set [2] has as its system human activated platelets. As to the kind of experiment: Binding of investigated compounds to human activated platelets (ICP-MS of Gd in pellet and supernatant). The conditions noted are these: incubation concentration 1 μM molecule; for Concentration within platelet pellet: ADP-activated platelet-rich plasma, 20 minutes, pellet washed. The class given is cell-based. As for the experimental part: For each experiment fresh blood was taken from a volunteer using 10 mL citrate-tubes (Sarstedt S-Monovette 02.1067.001, 10 mL, Citrate 3.13%). The 10 mL citrate-tubes were carefully inverted 10 times to mix blood and anticoagulant. The tubes were stored in an incubator at a temperature of 37° C. until centrifugation (Heraeus miniTherm CTT with integrated rotation- and turning device, turning speed: 19 rotations per minute, Heraeus Instruments GmbH, Hanau/Germany).
For plasma preparation tube centrifugation was carried out for 15 minutes at 1811 g at room temperature (Eppendorf, Centrifuge 5810R). Blood was centrifuged 15 minutes at 201 g at room temperature to produce platelet-rich plasma. The tubes were stored for 30 min at room temperature to get a better separation. The separated platelet-rich plasma was finally centrifuged for further 3 min at 453 g to remove the remaining erythrocytes. The platelet-rich plasma was activated using a final concentration of 5 μM Adenosindiphosphate (ADP, Sigma). The activated platelet-rich plasma was incubated 20 minutes with different concentrations of gadolinium-labeled compound and subsequently was centrifuged 3 minutes at 1360 g. 20 μL of incubation solution was taken to determine the concentration (n=3). […] The gadolinium concentration of supernatant and pellet was determined using an inductively coupled plasma mass spectrometry (ICP-MS Agilent 7500a).
The results for incubation concentration of 1 μM gadolinium-labeled compound are summarized in table 3 (in comparison to Gadovist® standard dose: 100 μmol Gd/kg body weight).

Data set [3] deals with T1, human GP IIb/IIIa receptor (Homo sapiens, UniProt P05106+P08514).
T1 construct: human GPIIb/IIIa purified from human platelets was immobilized on a 96-well solid plate; purchased Enzyme Research Laboratories Inc. (South Bend, Ind.); host or cells: human platelets (natural source, detergent-solubilised)
T1 sequence (P08514 32-887 limits assumed): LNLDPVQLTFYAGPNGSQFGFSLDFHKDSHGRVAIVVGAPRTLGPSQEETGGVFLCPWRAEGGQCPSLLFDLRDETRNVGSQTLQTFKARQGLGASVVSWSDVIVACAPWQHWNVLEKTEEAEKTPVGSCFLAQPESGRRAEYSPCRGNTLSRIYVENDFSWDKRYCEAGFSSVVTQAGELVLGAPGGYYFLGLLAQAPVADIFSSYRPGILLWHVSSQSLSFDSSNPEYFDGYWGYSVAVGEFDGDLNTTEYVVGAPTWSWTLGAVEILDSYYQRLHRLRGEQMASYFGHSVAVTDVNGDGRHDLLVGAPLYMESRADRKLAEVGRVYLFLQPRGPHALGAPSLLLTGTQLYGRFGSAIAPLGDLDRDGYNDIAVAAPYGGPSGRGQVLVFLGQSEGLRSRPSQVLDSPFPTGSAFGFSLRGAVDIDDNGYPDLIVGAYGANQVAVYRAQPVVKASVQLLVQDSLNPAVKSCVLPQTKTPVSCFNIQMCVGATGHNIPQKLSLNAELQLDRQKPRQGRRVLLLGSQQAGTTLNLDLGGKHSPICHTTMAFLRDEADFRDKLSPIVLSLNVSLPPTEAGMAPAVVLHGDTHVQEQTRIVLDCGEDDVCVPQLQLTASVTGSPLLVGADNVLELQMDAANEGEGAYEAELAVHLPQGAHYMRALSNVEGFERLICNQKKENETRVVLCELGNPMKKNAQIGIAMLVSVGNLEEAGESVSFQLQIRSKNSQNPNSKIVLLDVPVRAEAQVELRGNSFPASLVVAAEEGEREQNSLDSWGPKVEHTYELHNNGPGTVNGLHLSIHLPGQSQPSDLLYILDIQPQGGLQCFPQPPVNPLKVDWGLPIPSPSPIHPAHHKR
T1 sequence (P08514 891-1039 partner limits assumed): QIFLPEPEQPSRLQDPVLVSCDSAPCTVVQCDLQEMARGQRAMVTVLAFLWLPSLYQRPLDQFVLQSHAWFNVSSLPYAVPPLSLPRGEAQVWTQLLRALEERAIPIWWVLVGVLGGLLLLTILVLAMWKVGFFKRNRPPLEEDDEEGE
T1 sequence (P05106 27-788): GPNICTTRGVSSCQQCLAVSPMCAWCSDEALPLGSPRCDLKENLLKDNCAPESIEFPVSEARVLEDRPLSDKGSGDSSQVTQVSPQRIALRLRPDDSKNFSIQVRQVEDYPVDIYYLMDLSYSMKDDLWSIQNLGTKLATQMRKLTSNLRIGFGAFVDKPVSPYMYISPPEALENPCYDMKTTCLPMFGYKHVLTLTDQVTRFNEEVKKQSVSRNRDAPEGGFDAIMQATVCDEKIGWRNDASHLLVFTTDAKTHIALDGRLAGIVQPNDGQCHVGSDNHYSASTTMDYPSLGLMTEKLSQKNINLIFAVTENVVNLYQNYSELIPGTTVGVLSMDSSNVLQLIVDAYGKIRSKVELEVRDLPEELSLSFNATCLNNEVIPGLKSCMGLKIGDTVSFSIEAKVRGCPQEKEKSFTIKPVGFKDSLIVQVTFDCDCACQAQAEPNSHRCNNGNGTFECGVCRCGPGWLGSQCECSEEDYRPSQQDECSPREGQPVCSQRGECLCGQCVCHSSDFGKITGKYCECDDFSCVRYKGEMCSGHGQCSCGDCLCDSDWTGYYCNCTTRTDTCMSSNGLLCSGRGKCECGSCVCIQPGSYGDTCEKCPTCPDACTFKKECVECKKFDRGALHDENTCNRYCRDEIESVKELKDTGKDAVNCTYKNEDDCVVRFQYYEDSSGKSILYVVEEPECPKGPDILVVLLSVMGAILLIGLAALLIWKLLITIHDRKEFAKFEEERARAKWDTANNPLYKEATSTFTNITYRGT
As to the kind of experiment: GPIIb/IIIa affinity assay (displacement of tritiated reference compound from immobilized receptor). The class given is binding. Particulars: purified human GPIIb/IIIa, 60 nM 3H-labeled reference compound, 1 hour at room temperature. As for the experimental part: Affinity assay: In the first step human GPIIb/IIIa purified from human platelets was immobilized on a 96-well solid plate. After 48 hours the plates were washed and the unspecific binding sites were blocked with Roti®-Block. 2. In the next step, the plates were simultaneously incubated with a tritium labeled known GPIIb/IIIa binder (^3H) mixed with increasing concentrations of the novel compounds (inhibitor). The higher the affinity of the inhibitor, the lower the bound fraction of the tritiated known GPIIb/IIIa binder (^3H) was. The fraction of tritiated compound (^3H), which is not displaced by inhibitor, was measured in a microplate scintillation counter.
Purified human glycoprotein IIb/IIIa (20 mM Tris-HCl, 0.1 M NaCl, 0.1% Triton X-100, 1 mM CaCl2, 0.05% NaN3, 50% Glycerol, pH 7.4) was purchased from Enzyme Research Laboratories Inc. (South Bend, Ind.). The GPIIb/IIIa receptor was diluted in phosphate-buffered saline (Dulbecco's Phosphate Buffered Saline (D-PBS (+)) with calcium and magnesium, GIBCO®, Invitrogen) with 0.01% bovine serum albumin (albumin from bovine serum—lyophilized powder, 96%, Sigma).
The GPIIb/IIIa receptor was immobilized 48 hours at least (100 μL per well, 48 to maximum 96 hours) on a 96-well solid plate (Immuno Plate MaxiSorp™, Nunc, Roskilde, Denmark) at 277 K to 280 K and at a concentration of 0.1 μg per well to 1 μg per well. As negative control one row of the plate (n=8) was incubated just with 2% bovine serum albumin (200 μL per well, albumin from bovine serum—lyophilized powder, ≧96%, Sigma, diluted in D-PBS (+)).
After washing three times with the wash buffer (230 μL per well, Dulbecco's Phosphate Buffered Saline (D-PBS (−)) contains no calcium or magnesium, GIBCO®, Invitrogen) residual exposed plastic and unspecific binding sites were blocked by incubating the plate with a special blocking solution (200 μL per well, Roti®-Block, Car Roth GmbH Co KG, Karlsruhe) containing 2% bovine serum albumin (Albumin from bovine serum—lyophilized powder, ≧96%, Sigma) 1 hour at room temperature.
After washing three times with the wash buffer 50 μL of tritiated reference compound (60 nM, ^3H-labeled compound) and 50 μL of novel compound (inhibitor) were simultaneously added to each well and incubated for 1 hour at room temperature. Several concentrations of each novel inhibitor (0.1, 1, 2, 5, 10, 20 50, 100, 200, 500, 1000, 2000, 5000, 10000 and 20000 nM) were investigated. At each concentration of inhibitor a fourfold determination was performed.
The maximum value of tritiated reference compound was determined without addition of inhibitor (n=8). To exclude unspecific binding of ^3H— reference compound wells without glycoprotein receptors were used as negative controls (n=12, identically treated just without GPIIb/IIIa receptors).
After one hour the plate was washed three times with phosphate-buffered saline (200 μL per well, Dulbecco's Phosphate Buffered Saline (D-PBS (+)), GIBCO®, Invitrogen). Following 140 μL of liquid scintillation cocktail (MicroScint™ 40 aqueous, Perkin Elmer) was added to each well. After 15 min at room temperature the plates were measured at the microplate scintillation counter (TopCount NXT v2.13, Perkin Elmer, Packard Instrument Company).
In the first step human glycoprotein IIb/IIIa, which is purified from human platelets, was immobilized on a 96-well solid plate. After 48 hours at least the plates were washed and the unspecific binding sites were blocked with Roti®-Block. In the next step, the plates were simultaneously incubated with a tritium labeled reference compound and the novel small molecule compound (inhibitor). The higher the affinity of the inhibitor, the smaller is the bound fraction of reference compound. The fraction of tritiated reference compound, which is not displaced by inhibitor, was measured at a microplate scintillation counter. The higher the affinity of the inhibitor, the smaller is the bound fraction of tritium-labeled reference compound. […]

One may read the IC50 as the concentration at which inhibition is half-maximal.

Turning to `CC(C(=O)NCC(=O)NCCCCc1cc(C#Cc2cncc([C@H](CC(=O)O)NC(=O)[C@@H]3CCCN(C(=O)CCC4CCNCC4)C3)c2)cc(CCCCNC(=O)CNC(=O)C(C)N2CCN(CC(=O)O)CCN(CC(=O)O)CCN(CC(=O)O)CC2)c1)N1CCN(CC(=O)O)CCN(CC(=O)O)CCN(CC(=O)O)CC1` (stereo partly drawn) [Example 6, Digadolinium 2,2′,2″,2′″,2″″,2′″″-({5-[(5-{(1S)-2-carboxy-1-[({(3R)-1-[3-(piperidin-4-yl)-propanoyl]piperidin-3-yl}carbonyl)amino]ethyl}pyridin-3-yl)ethynyl]-1,3-phenylene}-bis[butane-4,1-diylimino(2-oxoethane-2,1-diyl)imino(1-oxopropane-1,2-diyl)-1,4,7,10-tetraazacyclododecane-10,1,4,7-tetrayl])hexaacetate], in data set [1], the r1 plasma is 10.3 L/mmol/s and the r1 water is 8.5 L/mmol/s. In addition, the “Concentration within platelet pellet” value in data set [2] is 6.8 ± 0.7 μM Gd. In data set [3], this compound had an IC50 of 103 nM.
Regarding “Gadolinium 2,2′,2″-{10-[(2S)-1-({2-[(6-(3-[(5-{(1S)-2-carboxy-1-[({(3R)-1-[3-(piperidin-4- yl)propanoyl]piperidin-3-yl}carbonyl)amino]ethyl}pyridin-3-yl)ethynyl]phenyl}butyl)-amino]-2-oxoethyl)amino)-1-oxopropan-2-yl]-1,4,7,10-tetraazacyclododecane-1,4,7-triyl}triacetate [Example 5]”, in data set [1], the r1 plasma turned out to be 9.9 L/mmol/s and the r1 water was 8.0 L/mmol/s. Further, the “Concentration within platelet pellet” value in data set [2] amounted to 3.9 ± 0.4 μM Gd. Besides, the pellet/supernatant in data set [2] (ratio of Gd concentration) is 123 ± 16 (n = 3). Further, the IC50 in data set [3] was found to be 25 nM.
